Several values for one entry are separate records, joined by “and”; a condition that tells them apart may be missing. Equal entries are not always repeated. Where two headings read alike, the source gives them in different places.
Test system: DosRST regulon
Type: cell-based
Conditions: for Counts per million (CPM) WT_HC103A: replicates 1, 2

O=C(Nc1cccc(O)c1)c1cccc(NC(=O)c2cccs2)c1 [HC103A, N-[3-[(3 hydroxyphenyl)carbamoyl]phenyl]thiophene-2-carboxamide]
WT DMSO/WT HC103A fold change (gene MT2019 (Rv1967)): 0.1846 | log2 Fold change (gene MT2019 (Rv1967)): −2.437 | Counts per million (CPM) WT_HC103A (gene MT2019 Rv1967): 58.15 CPM and 26.3 CPM | WT DMSO/WT HC103A fold change (gene MT2020 Rv1968): 0.199 | log2 Fold change (gene MT2020 Rv1968): −2.329 | Counts per million (CPM) WT_HC103A (gene MT2020 Rv1968): 72.37 CPM and 31.88 CPM | WT DMSO/WT HC103A fold change (gene MT2021 (Rv1969)): 0.2997 | log2 Fold change (gene MT2021 (Rv1969)): −1.738 | Counts per million (CPM) WT_HC103A (gene MT2021 Rv1969): 29.34 CPM and 13.9 CPM | WT DMSO/WT HC103A fold change (gene MT2022 (Rv1970 lprM)): 0.2084 | log2 Fold change (gene MT2022 (Rv1970 lprM)): −2.263 | Counts per million (CPM) WT_HC103A (gene MT2022 Rv1970 lprM): 41.74 CPM and 24.09 CPM | WT DMSO/WT HC103A fold change (gene MT2023 (Rv1971)): 0.2079 | log2 Fold change (gene MT2023 (Rv1971)): −2.266 | Counts per million (CPM) WT_HC103A (gene MT2023 Rv1971): 53.39 CPM and 33.31 CPM | WT DMSO/WT HC103A fold change (gene MT2024 (Rv1972)): 0.3791 | log2 Fold change (gene MT2024 (Rv1972)): −1.399 | Counts per million (CPM) WT_HC103A (gene MT2024 Rv1972): 12.78 CPM and 9.286 CPM | WT DMSO/WT HC103A fold change (gene MT2048 Rv1992c ctpG): 0.2903 | log2 Fold change (gene MT2048 Rv1992c ctpG): −1.784 | Counts per million (CPM) WT_HC103A (gene MT2048 Rv1992c ctpG): 531.4 CPM and 326.8 CPM | WT DMSO/WT HC103A fold change (gene MT2052 (Rv1996)): 0.003741 | log2 Fold change (gene MT2052 (Rv1996)): −8.063 | Counts per million (CPM) WT_HC103A (gene MT2052 Rv1996): 107.1 CPM and 83.44 CPM | WT DMSO/WT HC103A fold change (gene MT2053 (Rv1997 ctpF)): 0.0183 | log2 Fold change (gene MT2053 (Rv1997 ctpF)): −5.772 | Counts per million (CPM) WT_HC103A (gene MT2053 Rv1997 ctpF): 57.85 CPM and 33.12 CPM | WT DMSO/WT HC103A fold change (gene MT2059 (Rv2003c)): 0.1063 | log2 Fold change (gene MT2059 (Rv2003c)): −3.234 | Counts per million (CPM) WT_HC103A (gene MT2059 Rv2003c): 93.54 CPM and 62.92 CPM | WT DMSO/WT HC103A fold change (gene MT2060 Rv2004c): 0.05469 | log2 Fold change (gene MT2060 Rv2004c): −3.95 | Counts per million (CPM) WT_HC103A (gene MT2060 Rv2004c): 219.7 CPM and 144.4 CPM | WT DMSO/WT HC103A fold change (gene MT2061 Rv2005c): 0.04809 | log2 Fold change (gene MT2061 Rv2005c): −4.378 | Counts per million (CPM) WT_HC103A (gene MT2061 Rv2005c): 138.4 CPM and 91.76 CPM | WT DMSO/WT HC103A fold change (gene MT2062 Rv2006 otsB): 0.1408 | log2 Fold change (gene MT2062 Rv2006 otsB): −2.828 | Counts per million (CPM) WT_HC103A (gene MT2062 Rv2006 otsB): 107.5 CPM and 97.41 CPM | WT DMSO/WT HC103A fold change (gene MT2063 Rv2007c fdxA): 0.08678 | log2 Fold change (gene MT2063 Rv2007c fdxA): −4.765 | Counts per million (CPM) WT_HC103A (gene MT2063 Rv2007c fdxA): 527.8 CPM and 132.3 CPM | WT DMSO/WT HC103A fold change (gene MT2086 (Rv2027c)): 0.2521 | log2 Fold change (gene MT2086 (Rv2027c)): −1.988 | Counts per million (CPM) WT_HC103A (gene MT2086 Rv2027c): 73.2 CPM and 62.79 CPM | WT DMSO/WT HC103A fold change (gene MT2087 Rv2028c): 0.02878 | log2 Fold change (gene MT2087 Rv2028c): −5.119 | Counts per million (CPM) WT_HC103A (gene MT2087 Rv2028c): 35.92 CPM and 8.702 CPM | WT DMSO/WT HC103A fold change (gene MT2088): 0.01366 | log2 Fold change (gene MT2088): −6.194 | Counts per million (CPM) WT_HC103A (gene MT2088): 84.09 CPM and 21.3 CPM | WT DMSO/WT HC103A fold change (gene MT2089 Rv2030c): 0.01775 | log2 Fold change (gene MT2089 Rv2030c): −5.816 | Counts per million (CPM) WT_HC103A (gene MT2089 Rv2030c): 451.1 CPM and 80.39 CPM | WT DMSO/WT HC103A fold change (gene MT2090): 0.0164 | log2 Fold change (gene MT2090): −5.93 | WT DMSO/WT HC103A fold change (gene MT2091 Rv2032): 0.01154 | log2 Fold change (gene MT2091 Rv2032): −6.438 | WT DMSO/WT HC103A fold change (gene MT2445.1): 0.4105 | log2 Fold change (gene MT2445.1): −1.285 | WT DMSO/WT HC103A fold change (gene MT2556 Rv2483c): 0.3592 | log2 Fold change (gene MT2556 Rv2483c): −1.477 | WT DMSO/WT HC103A fold change (gene MT2557 Rv2484c): 0.3196 | log2 Fold change (gene MT2557 Rv2484c): −1.646 | WT DMSO/WT HC103A fold change (gene MT2574 Rv2499c): 0.3086 | log2 Fold change (gene MT2574 Rv2499c): −1.696 | WT DMSO/WT HC103A fold change (gene MT2576): 0.2991 | log2 Fold change (gene MT2576): −1.741 | WT DMSO/WT HC103A fold change (gene MT2577 Rv2502c accD1): 0.3334 | log2 Fold change (gene MT2577 Rv2502c accD1): −1.585 | WT DMSO/WT HC103A fold change (gene MT2578 Rv2503c scoB): 0.2841 | log2 Fold change (gene MT2578 Rv2503c scoB): −1.815 | WT DMSO/WT HC103A fold change (gene MT2579 Rv2504c scoA): 0.281 | log2 Fold change (gene MT2579 Rv2504c scoA): −1.831 | WT DMSO/WT HC103A fold change (gene MT2698 Rv2623): 0.006998 | log2 Fold change (gene MT2698 Rv2623): −7.159 | WT DMSO/WT HC103A fold change (gene MT2699 Rv2624c): 0.01316 | log2 Fold change (gene MT2699 Rv2624c): −6.247 | WT DMSO/WT HC103A fold change (gene MT2700 Rv2625c): 0.007921 | log2 Fold change (gene MT2700 Rv2625c): −6.98 | WT DMSO/WT HC103A fold change (gene MT2701 Rv2626c): 0.00844 | log2 Fold change (gene MT2701 Rv2626c): −6.888 | WT DMSO/WT HC103A fold change (gene MT2702 Rv2627c): 0.005338 | log2 Fold change (gene MT2702 Rv2627c): −7.55 | WT DMSO/WT HC103A fold change (gene MT2703 Rv2678): 0.02894 | log2 Fold change (gene MT2703 Rv2678): −5.111 | WT DMSO/WT HC103A fold change (gene MT2704 Rv2629): 0.05675 | log2 Fold change (gene MT2704 Rv2629): −4.139 | WT DMSO/WT HC103A fold change (gene MT2705 Rv2630): 0.07365 | log2 Fold change (gene MT2705 Rv2630): 3.763 | WT DMSO/WT HC103A fold change (gene MT2707 Rv2631): 0.07456 | log2 Fold change (gene MT2707 Rv2631): −3.745 | WT DMSO/WT HC103A fold change (gene MT3171 Rv3086 adhD): 0.4045 | log2 Fold change (gene MT3171 Rv3086 adhD): −1.306 | WT DMSO/WT HC103A fold change (gene MT3210): 0.0164 | log2 Fold change (gene MT3210): −5.93 | WT DMSO/WT HC103A fold change (gene MT3212 Rv3127): 0.01248 | log2 Fold change (gene MT3212 Rv3127): −6.324 | WT DMSO/WT HC103A fold change (gene MT3216 Rv3130c): 0.005779 | log2 Fold change (gene MT3216 Rv3130c): −7.435 | WT DMSO/WT HC103A fold change (gene MT3217 Rv3131): 0.004749 | log2 Fold change (gene MT3217 Rv3131): −7.718 | WT DMSO/WT HC103A fold change (gene MT3218 Rv3132c): 0.04611 | log2 Fold change (gene MT3218 Rv3132c): −4.439 | WT DMSO/WT HC103A fold change (gene MT3219 Rv3133c): 0.0294 | log2 Fold change (gene MT3219 Rv3133c): −5.088 | WT DMSO/WT HC103A fold change (gene MT3220 Rv3134c): 0.02054 | log2 Fold change (gene MT3220 Rv3134c): −5.606 | WT DMSO/WT HC103A fold change (gene MT3427): 0.4435 | log2 Fold change (gene MT3427): −1.173 | WT DMSO/WT HC103A fold change (gene MT3443 Rv3340 metC): 0.3114 | log2 Fold change (gene MT3443 Rv3340 metC): −1.683 | WT DMSO/WT HC103A fold change (gene MT3444 Rv3341 metA): 0.2535 | log2 Fold change (gene MT3444 Rv3341 metA): −1.924 | WT DMSO/WT HC103A fold change (gene MT3608 Rv3504 fadE26): 0.3558 | log2 Fold change (gene MT3608 Rv3504 fadE26): −1.491 | WT DMSO/WT HC103A fold change (gene MT3634 Rv3531c): 0.2978 | log2 Fold change (gene MT3634 Rv3531c): −1.748 | WT DMSO/WT HC103A fold change (gene MT3656 Rv3552): 0.3116 | log2 Fold change (gene MT3656 Rv3552): −1.582 | WT DMSO/WT HC103A fold change (gene MT3716 Rv3614c): 0.3057 | log2 Fold change (gene MT3716 Rv3614c): −1.71 | WT DMSO/WT HC103A fold change (gene MT3717 Rv3615c): 0.3122 | log2 Fold change (gene MT3717 Rv3615c): −1.679 | WT DMSO/WT HC103A fold change (gene MT3718 Rv3616c): 0.3166 | log2 Fold change (gene MT3718 Rv3616c): −1.659
